The molecules below were run on bovine cardiac myofibrils (assay: Myofibril assay: PK/LDH-coupled steady-state ATPase activity of skinned bovine cardiac myofibrils). Details: Ca2+ activating to 75% of maximal rate.
Assay type: biochemical
Experimental: To evaluate the effect of compounds on the ATPase activity of full-length cardiac myosin in the context of the native sarcomere, skinned myofibril assays were performed. Bovine cardiac myofibrils were obtained by homogenizing bovine cardiac left ventricular tissue in the presence of a detergent such as triton X-100. Such treatment removes membranes and a majority of the soluble cytoplasmic proteins but leaves intact the cardiac sarcomeric acto-myosin apparatus. Myofibril preparations retain the ability to hydrolyze ATP in a Ca^2+ regulated manner. ATPase activities of such myofibril preparations in the presence and absence of compounds were assayed at Ca^2+ concentrations activating to a defined fraction of the maximal rate (i.e., […], 75%). Small molecule agents were assessed for their ability to inhibit the steady-state ATPase activity of bovine cardiac myofibrils using pyruvate kinase and lactate dehydrogenase (PK/LDH)-coupled enzyme system. This assay regenerates myosin-produced ADP into ATP by oxidizing NADH, producing an absorbance change at 340 nm. Prior to testing small molecule agents, the bovine cardiac myofibrils were assessed for their calcium responsiveness and the calcium concentration that achieves either a 50% (pCa50) or 75% (pCa75) activation of the myofibril system was chosen as the final condition for assessing the inhibitory activity of the small molecule agents. All enzymatic activity was measured in a buffered solution containing 12 mM PIPES (piperazine-N,N′-bis(2-ethanesulfonic acid), 2 mM magnesium chloride at pH 6.8 (PM 12 buffer). Final assay conditions were 1 mg/mL of bovine cardiac myofibrils, 4 U/mL pyruvate kinase, 6 U/mL lactate dehydrogenase, 50 μM ATP, 0.1 mg/mL BSA (bovine serum albumin), 10 ppm antifoam, 1 mM DTT, 0.5 mM NADH, 1.5 mM PEP, 0.6 mM EGTA, and an amount of CaCl2 sufficient to achieve either 50% or 75% activation of the myofibril ATPase activity. Results for compounds tested are provided in Table A. Compounds tested were prepared in accordance with the synthetic procedures described herein.

SMILES | CDMF75 IC15
CNC(=O)N1CC2(C1)C(=O)N(c1ccc(Cl)c(C)c1)CC(=O)N2Cc1ccc(C(F)(F)F)cc1 [Compound 166, 8-(4-chloro-3-methyl-phenyl)-N-methyl-6,9-dioxo-5-(4-(trifluoromethyl)-benzyl)-2,5,8-triazaspiro-[3.5]nonane-2-carboxamide] | 2.4 µM
CNC(=O)N1CC2(C1)C(=O)N(c1ccc(C#N)cc1F)CC(=O)N2Cc1ccc(C2(C(F)(F)F)N=N2)cc1 [Compound 173, 8-(4-cyano-2-fluorophenyl)-N-methyl-6,9-dioxo-5-(4-(3-(trifluoromethyl)-3H-diazirin-3-yl)benzyl)-2,5,8-triazaspiro[3.5]nonane-2-carboxamide] | 0.6 µM
CC(=O)N1CCC2(C1)C(=O)N(c1ccc(C#N)cc1F)CC(=O)N2Cc1ccc(Cl)cc1 (stereo not drawn) [Compound 205, 4-(2-acetyl-6-(4-chlorobenzyl)-7,10-dioxo-2,6,9-triazaspiro[4.5]decan-9-yl)-3-fluorobenzonitrile] | 0.7 µM
CC(C)N1CC(=O)N(Cc2ccc(C(F)(F)F)cc2)C2(CCN(C(=O)Nc3cnn(C)c3)C2)C1=O (stereo not drawn) [Compound 114, 9-isopropyl-N-(1-methyl-1H-pyrazol-4-yl)-7,10-dioxo-6-(4-(trifluoromethyl)benzyl)-2,6,9-triazaspiro[4.5]decane-2-carboxamide] | 7.9 µM
CC(=O)N1CC2(C1)C(=O)N(C1CCCCCC1)CC(=O)N2Cc1ccc(C(F)(F)F)cc1 [Compound 326, 2-acetyl-8-cycloheptyl-5-(4-(trifluoromethyl)benzyl)-2,5,8-triazaspiro[3.5]-nonane-6,9-dione] | 23.7 µM
CC(C)N1CC(=O)N(Cc2ccc(C(F)(F)F)cc2)C2(CCN(C(=O)Nc3ccc(F)cc3)C2)C1=O (stereo not drawn) [Compound 115, N-(4-fluorophenyl)-9-isopropyl-7,10-dioxo-6-(4-(trifluoromethyl)benzyl)-2,6,9-triazaspiro[4.5]decane-2-carboxamide] | 10.2 µM
COC(=O)c1cc(N2CC3(C2)C(=O)N(C(C)C)CC(=O)N3Cc2ccc(Cl)cc2)ccn1 [Compound 35, methyl 4-(5-(4-chloro-benzyl)-8-isopropyl-6,9-dioxo-2,5,8-triazaspiro[3.5]nonan-2-yl)picolinate] | 14.6 µM
CC(C)N1CC(=O)N(Cc2ccc(Cl)cc2)C2(CN(c3ccncc3)C2)C1=O [Compound 8, 5-(4-chlorobenzyl)-8-isopropyl-2-(pyridin-4-yl)-2,5,8-triazaspiro[3.5]-nonane-6,9-dione] | 3.3 µM
CNC(=O)N1CC2(C1)C(=O)N(C(C)C)CC(=O)N2C(C)c1ccc(C(F)(F)F)cc1 (stereo not drawn) [Compound 139, 8-isopropyl-N-methyl-6,9-dioxo-5-(1-(4-(trifluoromethyl)phenyl)-ethyl)-2,5,8-triazaspiro-[3.5]nonane-2-carboxamide] | 14.8 µM
CC(C)N1CC(=O)N(Cc2cccc(F)c2)C(c2ccc(Cl)cc2)C1=O (stereo not drawn) [Compound 299, 3-(4-chlorophenyl)-4-(3-fluorobenzyl)-1-isopropylpiperazine-2,5-dione] | 7.0 µM
N#Cc1ccc(N2CC(=O)N(Cc3ccc(C(F)(F)F)cc3)[C@]3(C[C@H](c4nnc(C(F)F)o4)C3)C2=O)c(F)c1 [Compound 454B] | 0.1 µM
COCCNC(=O)N1CCC2(C1)C(=O)N(C(C)C)CC(=O)N2Cc1ccc(Cl)cc1 (stereo not drawn) [Compound 387, 6-(4-chlorobenzyl)-9-isopropyl-N-(2-methoxy-ethyl)-7,10-dioxo-2,6,9-triazaspiro[4.5]decane-2-carboxamide] | >39 µM
CC(C)N1CC(=O)N(Cc2ccc(C(F)(F)F)cc2)C2(CCN(C(N)=O)C2)C1=O (stereo not drawn) [Compound 107, 9-isopropyl-7,10-dioxo-6-(4-(trifluoromethyl)benzyl)-2,6,9-triazaspiro[4.5]decane-2-carboxamide] | 12.7 µM
O=C1CN(c2ccc(Cl)cc2F)C(=O)C2(CC2)N1Cc1ccc(C(F)(F)F)cc1 [Compound 271, 7-(4-chloro-2-fluorophenyl)-4-(4-(trifluoromethyl)-benzyl)-4,7-diazaspiro-[2.5]octane-5,8-dione] | 0.6 µM
CC(C)N1CC(=O)N(Cc2ccc(Cl)cc2)C2(CN(c3ccnnc3)C2)C1=O [Compound 24, 5-(4-chlorobenzyl)-8-isopropyl-2-(pyridazin-4-yl)-2,5,8-triazaspiro[3.5]-nonane-6,9-dione] | 5.7 µM

The next lines start with the values.

CDMF75 IC15 | SMILES
7.3 µM | Cc1cc(Cl)cnc1N1CC(=O)N(Cc2ccc(C(F)(F)F)cc2)C(CC2COC2)C1=O (stereo not drawn) [Compound 651, 1-(5-chloro-3-methylpyridin-2-yl)-3-(oxetan-3-ylmethyl)-4-(4-(trifluoromethyl)-benzyl)piperazine-2,5-dione]
25.5 µM | CC(=O)N1CC2(C1)C(=O)N(c1ccc(-c3noc(C)n3)cc1F)CC(=O)N2Cc1ccc(C(F)(F)F)cc1 [Compound 702]
2.0 µM | CC1(C2C(=O)N(c3ncc(Cl)cc3F)CC(=O)N2Cc2ccc(Cl)cc2)COC1 (stereo not drawn) [Compound 624, 1-(5-chloro-3-fluoropyridin-2-yl)-4-(4-chlorobenzyl)-3-(3-methyloxetan-3-yl)-piperazine-2,5-dione]
7.2 µM | Cc1ccc(CN2C(=O)CN(c3ncc(Cl)cc3F)C(=O)C23COC3)cc1 [Compound 757, 8-(5-chloro-3-fluoropyrldin-2-yl)-5-(4-methylbenzyl)-2-oxa-5,8-diazaspiro[3.5]-nonane-6,9-dione]
1.4 µM | CC1(C(F)F)C(=O)N(c2ncc(Cl)cc2F)CC(=O)N1Cc1ccc(C(F)(F)F)cc1 (stereo not drawn) [Compound 657, 1-(5-chloro-3-fluoropyridin-2-yl)-3-(difluoromethyl)-3-methyl-4-(4-(trifluoro-methyl)-benzyl)piperazine-2,5-dione]
6.2 µM | O=C1C(C2CCSCC2)N(Cc2ccc(C(F)(F)F)cc2)C(=O)CN1c1ncc(Cl)cc1F (stereo not drawn) [Compound 687, 1-(5-chloro-3-fluoropyridin-2-yl)-3-(tetrahydro-2H-thiopyran-4-yl)-4-(4-(trifluoromethyl)benzyl)-piperazine-2,5-dione]
32.4 µM | CC(=O)NCC1C(=O)N(c2ncc(Cl)cc2F)CC(=O)N1Cc1ccc(C(F)(F)F)cc1 (stereo not drawn) [Compound 629, N-((4-(5-chloro-3-fluoro-pyridin-2-yl)-3,6-dioxo-1-(4-(trifluoromethyl)-benzyl)piperazin-2-yl)-methyl)acetamide]
0.2 µM | CNc1ccc(N2CC3(C2)C(=O)N(c2ccc(C#N)cc2F)CC(=O)N3Cc2ccc(C(F)(F)F)cc2)cc1 [Compound 538, 3-fluoro-4-(2-(4-(methylamino)phenyl)-6,9-dioxo-5-(4-(trifluoromethyl)benzyl)-2,5,8-triazaspiro[3.5]nonan-8-yl)benzonitrile]
1.4 µM | O=C1CN(c2ncc(Cl)cc2F)C(=O)C2(CCOC2)N1Cc1ccc(C(F)(F)F)cc1 (stereo not drawn) [Compound 553, 9-(5-chloro-3-fluoropyridin-2-yl)-6-(4-(trifluoromethyl)-benzyl)-2-oxa-6,9-diazaspiro[4.5]decane-7,10-dione]
29.0 µM | C[C@@H](c1ccc(Cl)cc1)N1C(=O)CN(c2ncc(Cl)cc2F)C(=O)C12CN(C(=O)NC1CCOCC1)C2 [Compound 562, (S)-8-(5-chloro-3-fluoro-pyridin-2-yl)-5-(1-(4-chlorophenyl)ethyl)-6,9-dioxo-N-(tetrahydro-2H-pyran-4-yl)-2,5,8-triazaspiro[3.5]nonane-2-carboxamide]
7.7 µM | COc1cnc(N2CC(=O)N(Cc3ccc(Cl)c(F)c3)C(C3COC3)C2=O)c(F)c1 (stereo not drawn) [Compound 772, 4-(4-chloro-3-fluoro-benzyl)-1-(3-fluoro-5-methoxypyridin-2-yl)-3-(oxetan-3-yl)piperazine-2,5-dione]
>39 µM | Cc1ccc(CN2C(=O)CN(c3ncc(Cl)cc3F)C(=O)[C@H]2C23CC(C(N)=O)(C2)C3)cc1 [Compound 824, (R)-3-(4-(5-chloro-3-fluoropyridin-2-yl)-1-(4-methylbenzyl)-3,6-dioxopiperazin-2-yl)-bicyclo[1.1.1]pentane-1-carboxamide]
4.0 µM | COC(=O)C12CC(C3C(=O)N(c4ncc(Cl)cc4F)CC(=O)N3Cc3ccc(C)cc3)(C1)C2 (stereo not drawn) [Compound 781, methyl 3-(4-(5-chloro-3-fluoropyridin-2-yl)-1-(4-methylbenzyl)-3,6-dioxopiperazin-2-yl)bicyclo[1.1.1]pentane-1-carboxylate]
0.4 µM | CNC(=O)N[C@H]1C[C@]2(C1)C(=O)N(c1ccc(C#N)cc1F)CC(=O)N2Cc1ccc(C(F)(F)F)cc1 [Compound 463B]
0.2 µM | CNC(=O)c1cc(N2CC3(C2)C(=O)N(c2ccc(C#N)cc2F)CC(=O)N3Cc2ccc(C(F)(F)F)cc2)ccc1NC [Compound 545, 5-(8-(4-cyano-2-fluorophenyl)-6,9-dioxo-5-(4-(trifluoromethyl)benzyl)-2,5,8-triazaspiro[3.5]nonan-2-yl)-N-methyl-2-(methylamino)benzamide]
